Measured values: US20220370453A1 (Storm Therapeutics Ltd, priority 2019, published 2022)

How the values were obtained:
[1] = target: T1, BCDIN3D (Homo sapiens, UniProt Q7Z5W3); assay: BCDIN3D IC50 RFMS (RapidFire) assay with mini-helix; type: biochemical; conditions: mini-helix substrate 0.2 μM, SAM 6 μM, 25 nM enzyme
T1 sequence (Q7Z5W3 1-292): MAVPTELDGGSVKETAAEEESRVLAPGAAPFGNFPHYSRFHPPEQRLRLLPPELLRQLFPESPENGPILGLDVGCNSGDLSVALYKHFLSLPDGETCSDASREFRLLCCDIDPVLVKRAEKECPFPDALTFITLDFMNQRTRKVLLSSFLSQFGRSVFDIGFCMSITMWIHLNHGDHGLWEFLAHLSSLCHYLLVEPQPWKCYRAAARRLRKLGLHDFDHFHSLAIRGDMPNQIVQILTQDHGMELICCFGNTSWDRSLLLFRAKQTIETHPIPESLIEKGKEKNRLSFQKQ
How it was run: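 25 nM enzyme preincubated 10 min at room temperature with compound (1% DMSO) in 25 mM Tris pH 8.0, 10 mM DTT, 1 mM EDTA, 0.03% BSA. Reaction started with 0.2 μM mini-helix plus 6 μM SAM, run 1 h at 37 °C, quenched with TCA; SAH product quantified by RapidFire MS against isotopic SAH standards.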

[2] = target: T1, BCDIN3D; assay: BCDIN3D InCellPulse thermal stability assay in transfected A549 cells; type: cell-based; conditions: transiently transfected A549 cells, heat shock 58° C. 15 min
How it was run: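 A549 cells transiently expressing BCDIN3D N-terminally fused to ePL ProLabel tag, 1500 cells/well, pre-incubated 1 h at 37 °C with compound (0.6% DMSO). Heat shock 58 °C for 15 min; remaining soluble fusion detected by split β-galactosidase complementation luminescence.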

Row | SMILES | IC50 [1] [nM] | IC50 [2] [nM]
1 | COc1ccc(CNc2nc(NCC(N)c3ccccc3)nc3c2cnn3C)c(OC)c1 (stereo not shown) [Compound 4.09, N6-(2-amino-2-phenyl-ethyl)-N4-[(2,4-dimethoxyphenyl)methyl]-1-methyl-pyrazolo[3,4-d]pyrimidine-4,6-diamine] | 178 | 505
2 | Cn1ncc2c(Nc3ccc(F)cc3)nc(NCC(N)c3ccccc3)nc21 (stereo not shown) [Compound 4.10, 6-N-(2-amino-2-phenylethyl)-4-N-(4-fluorophenyl)-1-methylpyrazolo[3,4-d]pyrimidine-4,6-diamine] | 71.7 | 323
3 | Cn1ncc2c(Nc3cnc(C(F)(F)F)nc3)nc(NCC(C)(N)c3ccccc3)nc21 (stereo not shown) [Compound 4.11, N6-(2-amino-2-phenyl-propyl)-1-methyl-N4-[2-(trifluoromethyl)pyrimidin-5-yl]pyrazolo[3,4-d]pyrimidine-4,6-diamine] | 168 | 2160
4 | Cn1ncc2c(Nc3ccc(OC(F)(F)F)cc3)nc(NCC(C)(N)c3ccccc3)nc21 (stereo not shown) [Compound 4.12, N6-(2-amino-2-phenyl-propyl)-1-methyl-N4-[4-(trifluoromethoxy)phenyl]pyrazolo[3,4-d]pyrimidine-4,6-diamine] | 52.1 | 186
5 | Cn1ncc2c(Nc3ccc(Cl)c(Cl)c3)nc(NCC(C)(N)c3ccccc3)nc21 (stereo not shown) [Compound 4.13, N6-(2-amino-2-phenyl-propyl)-N4-(3,4-dichlorophenyl)-1-methyl-pyrazolo[3,4-d]pyrimidine-4,6-diamine] | 86.6 | 258
6 | Cn1ncc2c(Nc3ccc(OC(F)F)cc3)nc(NCC(N)c3ccccc3)nc21 (stereo not shown) [Compound 4.14, 6-N-(2-amino-2-phenylethyl)-4-N-[4-(difluoromethoxy)phenyl]-1-methylpyrazolo[3,4-d]pyrimidine-4,6-diamine] | 89.5 | 206
7 | Cn1ncc2c(Nc3ccc(OC(F)F)cc3)nc(NCC(C)(N)c3ccccc3)nc21 (stereo not shown) [Compound 4.15, 6-N-(2-amino-2-phenylpropyl)-4-N-[4-(difluoromethoxy)phenyl]-1-methylpyrazolo[3,4-d]pyrimidine-4,6-diamine] | 69.4 | 295
8 | Cn1ncc2c(Nc3ccc(OC(F)F)cc3)nc(NC[C@H](N)c3ccccc3)nc21 [Compound 4.16, N6-[(2R)-2-amino-2-phenyl-ethyl]-N4-[4-(difluoromethoxy)phenyl]-1-methyl-pyrazolo[3,4-d]pyrimidine-4,6-diamine] | 40.8 | 46.3
9 | Cn1ncc2c(Nc3ccc(C(F)(F)F)cc3)nc(NCC(N)c3ccccc3)nc21 (stereo not shown) [Compound 4.17, 6-N-(2-amino-2-phenylethyl)-1-methyl-4-N-[4-(trifluoromethyl)phenyl]pyrazolo[3,4-d]pyrimidine-4,6-diamine] | 50.1 | 178
10 | Cc1nn(C)c2nc(NCC(N)c3ccccc3)nc(Nc3ccc(C(F)(F)F)cc3)c12 (stereo not shown) [Compound 4.18, 6-N-(2-amino-2-phenylethyl)-1,3-dimethyl-4-N-[4-(trifluoromethyl)phenyl]pyrazolo[3,4-d]pyrimidine-4,6-diamine] | 288 | 270
11 | Cn1ncc2c(Nc3ccc(C(F)(F)F)cc3)nc(NCC(C)(N)c3ccccc3)nc21 (stereo not shown) [Compound 4.19, N6-(2-amino-2-phenyl-propyl)-1-methyl-N4-[4-(trifluoromethyl)phenyl]pyrazolo[3,4-d]pyrimidine-4,6-diamine] | 36.1 | 86.4
12 | [2H]C([2H])([2H])n1ncc2c(Nc3ccc(C(F)(F)F)cc3)nc(NCC(N)c3ccccc3)nc21 (stereo not shown) [Compound 4.20, N6-(2-amino-2-phenyl-ethyl)-1-(trideuteriomethyl)-N4-[4-(trifluoromethyl)phenyl]pyrazolo[3,4-d]pyrimidine-4,6-diamine] | 38.5 | 60.4
13 | [2H]C([2H])([2H])n1ncc2c(Nc3ccc(C(F)(F)F)cc3)nc(NCC(C)(N)c3ccccc3)nc21 (stereo not shown) [Compound 4.21, N6-(2-amino-2-phenyl-propyl)-1-(trideuteriomethyl)-N4-[4-(trifluoromethyl)phenyl]pyrazolo[3,4-d]pyrimidine-4,6-diamine] | 42.8 | 218
14 | Cn1ncc2c(Nc3ccc(C(F)(F)F)cc3)nc(NC[C@H](N)c3ccccc3)nc21 [Compound 4.22, 6-N-[(2R)-2-amino-2-phenylethyl]-1-methyl-4-N-[4-(trifluoromethyl)phenyl]pyrazolo[3,4-d]pyrimidine-4,6-diamine] | 34.1 | 29.9
15 | Cn1ncc2c(Nc3ccc(C(F)(F)F)cc3)nc(NC[C@@H](N)c3ccccc3)nc21 [Compound 4.23, 6-N-[(2S)-2-amino-2-phenylethyl]-1-methyl-4-N-[4-(trifluoromethyl)phenyl]pyrazolo[3,4-d]pyrimidine-4,6-diamine] | 1520 | 202
16 | [2H]C([2H])([2H])n1ncc2c(Nc3ccc(C(F)(F)F)cc3)nc(NC[C@H](N)c3ccccc3)nc21 [Compound 4.24, N6-[(2R)-2-amino-2-phenyl-ethyl]-1-(trideuteriomethyl)-N4-[4-(trifluoromethyl)phenyl]pyrazolo[3,4-d]pyrimidine-4,6-diamine] | 13.9 | 14.4
17 | Cn1ncc2c(Nc3ccc(C(F)(F)F)nc3)nc(NCC(N)c3ccccc3)nc21 (stereo not shown) [Compound 4.25, 6-N-(2-amino-2-phenylethyl)-1-methyl-4-N-[6-(trifluoromethyl)pyridin-3-yl]pyrazolo[3,4-d]pyrimidine-4,6-diamine] | 50.7 | 319
18 | Cn1ncc2c(Nc3ccc(C(F)(F)F)nc3)nc(NCC(C)(N)c3ccccc3)nc21 (stereo not shown) [Compound 4.26, 6-N-(2-amino-2-phenylpropyl)-1-methyl-4-N-[6-(trifluoromethyl)pyridin-3-yl]pyrazolo[3,4-d]pyrimidine-4,6-diamine] | 21.7 | 384
19 | [2H]C([2H])([2H])n1ncc2c(Nc3ccc(C(F)(F)F)nc3)nc(NCC(C)(N)c3ccccc3)nc21 (stereo not shown) [Compound 4.27, N6-(2-amino-2-phenyl-propyl)-1-(trideuteriomethyl)-N4-[6-(trifluoromethyl)-3-pyridyl]pyrazolo[3,4-d]pyrimidine-4,6-diamine] | 46.6 | 610
20 | Cn1ncc2c(Nc3ccc(OC(F)F)nc3)nc(NCC(N)c3ccccc3)nc21 (stereo not shown) [Compound 4.28, N6-(2-amino-2-phenyl-ethyl)-N4-[6-(difluoromethoxy)-3-pyridyl]-1-methyl-pyrazolo[3,4-d]pyrimidine-4,6-diamine] | 149 | 318
21 | Cn1ncc2c(Nc3ccc(OC(F)F)nc3)nc(NCC(C)(N)c3ccccc3)nc21 (stereo not shown) [Compound 4.29, N6-(2-amino-2-phenyl-propyl)-N4-[6-(difluoromethoxy)-3-pyridyl]-1-methyl-pyrazolo[3,4-d]pyrimidine-4,6-diamine] | 116 | 525
22 | Cn1ncc2c(Nc3ccc(Cl)cc3)nc(NC[C@H](N)c3ccccc3)nc21 [Compound 4.30, N6-[(2R)-2-amino-2-phenyl-ethyl]-N4-(4-chlorophenyl)-1-methyl-pyrazolo[3,4-d]pyrimidine-4,6-diamine] | 28.6 | 62.6
23 | Cn1ncc2c(Nc3ccc(Cl)cc3)nc(NC[C@@H](N)c3ccccc3)nc21 [Compound 4.31, N6-[(2S)-2-amino-2-phenyl-ethyl]-N4-(4-chlorophenyl)-1-methyl-pyrazolo[3,4-d]pyrimidine-4,6-diamine] | 7390 | 60000
24 | COc1ccc(Nc2nc(NC[C@H](N)c3ccccc3)nc3c2cnn3C)cc1 [Compound 4.32, N6-[(2R)-2-amino-2-phenyl-ethyl]-N4-(4-methoxyphenyl)-1-methyl-pyrazolo[3,4-d]pyrimidine-4,6-diamine] | 95.8 | 140
25 | CC(C)Oc1ccc(Nc2nc(NC[C@H](N)c3ccccc3)nc3c2cnn3C)cc1 [Compound 4.33, N6-[(2R)-2-amino-2-phenyl-ethyl]-N4-(4-isopropoxyphenyl)-1-methyl-pyrazolo[3,4-d]pyrimidine-4,6-diamine] | 64.4 | 38
26 | Cn1ncc2c(Nc3ccc(F)c(F)c3)nc(NC[C@H](N)c3ccccc3)nc21 [Compound 4.34, N6-[(2R)-2-amino-2-phenyl-ethyl]-N4-(3,4-difluorophenyl)-1-methyl-pyrazolo[3,4-d]pyrimidine-4,6-diamine] | 118 | 162
27 | CN(C)c1ccc(Nc2nc(NC[C@H](N)c3ccccc3)nc3c2cnn3C)cc1 [Compound 4.35, N6-[(2R)-2-amino-2-phenyl-ethyl]-N4-[4-(dimethylamino)phenyl]-1-methyl-pyrazolo[3,4-d]pyrimidine-4,6-diamine] | 143 | 141
28 | CNc1nc(NCC(N)c2ccccc2)nc2c1cnn2C (stereo not shown) [Compound 4.36, 6-N-(2-amino-2-phenylethyl)-4-N,1-dimethylpyrazolo[3,4-d]pyrimidine-4,6-diamine] | 554 | 1860
29 | [2H]C([2H])([2H])n1ncc2c(NC)nc(NCC(N)c3ccccc3)nc21 (stereo not shown) [Compound 4.38, 6-N-(2-amino-2-phenylethyl)-4-N-methyl-1-(trideuteriomethyl)pyrazolo[3,4-d]pyrimidine-4,6-diamine] | 8100 | 9560
